We go through 21 molecules from publication PMC12368482, “Antiprotozoal Activity of Highly Substituted Pyrazole and Pyrimidine Derivatives” (Chemmedchem, 2025).

As usually defined, the IC50 is the concentration at which inhibition is half-maximal. The viability is a read-out of living cells in per cent, often relative to untreated cells.

Read-outs that look alike come from different tables or passages of the source.

Format in all cases: cell-based
The subject of data set [1] is P. falciparum D10. Nature of the data set: Antiplasmodial susceptibility assay (pLDH), CQ-sensitive D10 strain. The settings on record: Plasmodium falciparum, read-out: IC50 P. falciparum D10. How it is done: (§1) Continuous in vitro Plasmodium falciparum cultures were carried out according to Trager and Jensen with slight modifications.^[ [38] ^] The CQ‐susceptible strain D10 and the CQ‐resistant strain W2 were maintained at 5% hematocrit (human type A‐positive red blood cells) in RPMI 1640 (EuroClone, Celbio) medium with the addition of 1% AlbuMax (Invitrogen, Milan, Italy), 0.01% hypoxanthine, 20 mM HEPES (at pH 7.4), and 2 mM glutamine. All the cultures were maintained at 37 °C in a low‐oxygen atmosphere consisting of 1% O2, 5% CO2, and 94% N2. Compounds were dissolved in DMSO to a stock concentration of 10 mg/ml and then diluted with complete medium to achieve the desired concentrations (final DMSO concentration <1%, which is nontoxic to the parasite). Derivatives were placed in 96‐well flat‐bottomed microplates in duplicate, and seven 1:2 serial dilutions were made directly in the plate in a volume of 100 μL. Asynchronous cultures with parasitemia of 1%–1.5% (assessed through Giemsa stained blood smears) and 1% final hematocrit were aliquoted into the plates and incubated for 72 h at 37 °C in a final volume of 200 μL/well. Uninfected erythrocytes at 2% hematocrit were used as blank. The antimalarial CQ was tested against the parasite strains as a positive control of inhibition. Parasite growth was determined spectrophotometrically (OD650) by measuring the activity of the parasite lactate dehydrogenase (pLDH), according to a modified version of the method of Makler in control and drug‐treated cultures.^[ [39] ^] The antimalarial activity was expressed as 50% inhibitory concentrations (IC50). The IC50 values were extrapolated from nonlinear regression analysis of the concentration–response curve, using the software Gen5 1.10 provided with the Synergy 4 (BioTek) reader. Each IC50 value was the mean of three independent experiments run in duplicates.

Data set [2] concerns L. tropica promastigotes. Nature of the data set: Antileishmanial evaluation (MTT), promastigotes. The settings on record: Leishmania tropica, 72 h, NA = not active. How it is done:
(§2) The promastigote stage of L. infantum strain MHOM/TN/80/IPT1 (kindly provided by Dr M. Gramiccia, ISS, Roma) and L. tropica strain (MHOM/IT/2012/ISS3130) were cultured in RPMI 1640 medium (EuroClone) supplemented with 10% heat‐inactivated fetal calf serum (EuroClone), 20 mM Hepes, and 2 mM L‐glutamine at 24 °C. To determine the 50% inhibitory concentration (IC50), the MTT method was used.^[ [40], [41] ^] Compounds were dissolved in DMSO and then diluted with medium to achieve the required concentrations. Drugs were placed in 96 wells round‐bottom microplates and seven serial dilutions made. Amphotericin B was used as reference antiLeishmania drug. Parasites were diluted in complete medium to 5 × 10^6 parasites mL^−1 and 100 μL of the suspension was added to each well. The plates were incubated at 24 °C for 72 h, after the incubation 20 μL of MTT solution (5 mg mL^−1) was added to each well and incubated for additional 3 h. The plates were then centrifuged at 1000 × g for 8 min at room temperature and the supernatants were discarded. The resulting pellets were dissolved in 100 μL of lysing buffer consisting of 20% w/v of a solution of SDS (Sigma), 40% of DMF (Merck) in H2O. The absorbance was measured spectrophotometrically at a test wavelength of 550 nm and a reference wavelength of 650 nm. The results were expressed as IC50 which was the concentration of compound necessary to inhibit parasite growth by 50%; each IC50 value was the mean of separate experiments performed in duplicate.

Data set [3] deals with L. infantum promastigotes. Nature of the data set: Antileishmanial evaluation (MTT), promastigotes. The settings on record: Leishmania infantum, 72 h, NA = not active. How it is done: as §2
The nature of data set [4]: MTT cytotoxicity assay on fibroblasts. Particulars: human, GM-6114 embryonic human fibroblasts, compounds tested at 10 μM for 48 h, percentage of control, read-out: Cell viability GM‐6114. How it is done: MTT assays: MTT assays were performed using GM‐6114 (embryonic human fibroblast, ATCC, Manassas, VA). The cells were grown in DMEM with 10% FBS, 2 mM glutamine, and 1% penstrep and incubated at 37 °C in 5% CO2 in a humidified environment. All reagents were purchased from EuroClone (Milan, Italy). Briefly, the cell line was plated in 96 well plates at an adequate number to reach 80%–90% of confluence at the end of the assay. 16 h after cell plating, compounds were dissolved in DMSO to give a 10 mM stock solution, diluted in growth medium, and added at a final working concentration of 10 μM. After 48 h of incubation, 30 μL of 3‐(4,5‐dimethyl‐2‐thiazolyl)‐2,5‐diphenyl‐2H‐tetrazolium bromide (MTT) at a concentration of 2 mg mL^−1 in PBS were added in each well. Then, after further 4 h of incubation, the supernatant was removed, and 100 μL/well of DMSO were used to dissolve the formazan precipitate that could be found in vital cells. After 20 min, the results were read at 570 nm by means of a plate reader. The results were expressed as percentage of the control samples in which the cells were incubated with the same amount of DMSO but without compounds. The assays were repeated three times. In each set, every single compound was tested six times. Variation among duplicates was less than 10%.

The test system of data set [5] is P. falciparum W2. Nature of the data set: Antiplasmodial susceptibility assay (pLDH), CQ-resistant W2 strain. The settings on record: Plasmodium falciparum, read-out: IC50 P. falciparum W2. How it is done:
as §1

Setting [6] is: CQ-sensitive strain D10, 72 h, pLDH readout, mean of three independent experiments in duplicate, NA = not active.
The mark [7] stands for this setting: CQ-resistant strain W2, 72 h, pLDH readout, mean of three independent experiments in duplicate, NA = not active.

With `COc1ccc(CCNc2[nH]nc(C(C)(C)C)c2C#N)cc1OC` [13a, 3‐(tert‐butyl)‐5‐((3,4‐dimethoxyphenethyl)amino)‐1H‐pyrazole‐4‐carbonitrile], the IC50 in data set [1] (setting [6]) stood at 28.6 µM; in data set [2] it was 52.2 µM; in data set [3] it was 40.1 µM; in data set [5] (setting [7]) it was 25.6 µM. Moreover, the viability at 48 h, 10 μM in data set [4] was found to be 82%.
With `CC(C)(C)c1n[nH]c(N2CCOCC2)c1C#N` [13b, 3‐(tert‐butyl)‐5‐morpholino‐1H‐pyrazole‐4‐carbonitrile], the viability at 48 h, 10 μM in data set [4] came to 91%.
In the case of `CC(C)(C)c1n[nH]c(N2CCC(c3ccccc3)CC2)c1C#N` [13c, 3‐(tert‐butyl)‐5‐(4‐phenylpiperidin‐1‐yl)‐1H‐pyrazole‐4‐carbonitrile], the IC50 in data set [1] (setting [6]) is 14.9 µM; in data set [2], 34.6 µM; in data set [3], 30.4 µM; in data set [5] (setting [7]), 11.1 µM. For the same molecule, the viability at 48 h, 10 μM in data set [4] turned out to be 94%.
The matching figures for `COc1ccc(CCNc2[nH]nc(-c3ccccc3)c2C#N)cc1OC` [14a, 5‐((3,4‐dimethoxyphenethyl)amino)‐3‐phenyl‐1H‐pyrazole‐4‐carbonitrile]: 35.1 µM, 55.7 µM, 40.1 µM, 36.5 µM and 87%.
As for `N#Cc1c(-c2ccccc2)n[nH]c1N1CCOCC1` [14b, 5‐morpholino‐3‐phenyl‐1H‐pyrazole‐4‐carbonitrile], the midpoint of inhibition in data set [3], the IC50, lay at 75.9 µM. Further, in data set [4], the viability at 48 h, 10 μM amounted to 84%.
For the molecule `N#Cc1c(-c2ccccc2)n[nH]c1N1CCC(c2ccccc2)CC1` [14c, 3‐phenyl‐5‐(4‐phenylpiperidin‐1‐yl)‐1H‐pyrazole‐4‐carbonitrile], the IC50 in data set [1] (setting [6]) came out at 31 µM; in data set [2], 21.3 µM; in data set [3], 22.4 µM; in data set [5] (setting [7]), 23.4 µM. The viability at 48 h, 10 μM in data set [4] turned out to be 76%.
Taken in the same sequence, the figures for `CCCCN(CCCC)CCNc1[nH]nc(-c2ccccc2)c1C#N` [14d, 5‐((2‐(dibutylamino)ethyl)amino)‐3‐phenyl‐1H‐pyrazole‐4‐carbonitrile] were 9.52 µM, 11.6 µM, 7.92 µM, 9 µM and 71%.
The matching figures for `CCCCN(CCCC)CCCNc1[nH]nc(-c2ccccc2)c1C#N` [14e, 5‐((3‐(dibutylamino)propyl)amino)‐3‐phenyl‐1H‐pyrazole‐4‐carbonitrile]: 9.79 µM, 8.32 µM, 6.17 µM, 4.34 µM and 65%.
The matching figures for `CCN(CC)CCCC(C)Nc1[nH]nc(-c2ccccc2)c1C#N` (stereo not drawn) [14f, 5‐((5‐(diethylamino)pentan‐2‐yl)amino)‐3‐phenyl‐1H‐pyrazole‐4‐carbonitrile]: 43.3 µM, 9.74 µM, 11 µM, 13.4 µM and 58%.
With `COc1ccc(CCNc2[nH]nc(N)c2S(=O)(=O)c2ccccc2)cc1OC` [15a, N ^ 5 ‐(3,4‐dimethoxyphenethyl)‐4‐(phenylsulfonyl)‐1H‐pyrazole‐3,5‐diamine], the viability at 48 h, 10 μM in data set [4] was found to be 70%.
For `Nc1n[nH]c(N2CCOCC2)c1S(=O)(=O)c1ccccc1` [15b, 5‐morpholino‐4‐(phenylsulfonyl)‐1H‐pyrazol‐3‐amine], the values for the IC50 in data set [1] (setting [6]) and in data set [5] (setting [7]) were 49.6 µM and 50.4 µM, respectively. Moreover, in data set [4], the viability at 48 h, 10 μM amounted to 87%.
`Nc1n[nH]c(N2CCC(c3ccccc3)CC2)c1S(=O)(=O)c1ccccc1` [15c, 5‐(4‐phenylpiperidin‐1‐yl)‐4‐(phenylsulfonyl)‐1H‐pyrazol‐3‐amine]: the IC50 was 38 µM in data set [1] (setting [6]), 44 µM in data set [2], 27.4 µM in data set [3] and 51.8 µM in data set [5] (setting [7]). In addition, the viability at 48 h, 10 μM in data set [4] was found to be 102%.
`COc1ccc(CCNc2nc(N)nc(O)c2C#N)cc1OC` [16a, 2‐amino‐4‐((3,4‐dimethoxyphenethyl)amino)‐6‐hydroxypyrimidine‐5‐carbonitrile]: the IC50 in data set [1] (setting [6]) was determined as 9.24 µM; in data set [5] (setting [7]), 31.7 µM. In addition, the viability at 48 h, 10 μM in data set [4] came to 67%.
Take `N#Cc1c(O)nc(N)nc1N1CCOCC1` [16b, 2‐amino‐4‐hydroxy‐6‐morpholinopyrimidine‐5‐carbonitrile]: in data set [4], the viability at 48 h, 10 μM was found to be 65%.
`CCCCN(CCCC)CCCNc1nc(N)nc(O)c1C#N` [16e, 2‐amino‐4‐((3‐(dibutylamino)propyl)amino)‐6‐hydroxypyrimidine‐5‐carbonitrile]: in data set [4], the viability at 48 h, 10 μM is 66%. In data set [5] (setting [7]), the IC50 stood at 45 µM.
In the case of `COc1ccc(CCNc2nc(N)nc(-c3ccccc3)c2C#N)cc1OC` [17a, 2‐amino‐4‐((3,4‐dimethoxyphenethyl)amino)‐6‐phenylpyrimidine‐5‐carbonitrile], the viability at 48 h, 10 μM in data set [4] was determined as 46%.
Same read-out and setting: the figure for `N#Cc1c(-c2ccccc2)nc(N)nc1N1CCOCC1` [17b, 2‐amino‐4‐morpholino‐6‐phenylpyrimidine‐5‐carbonitrile] is 66%.
As to `CCCCN(CCCC)CCCNc1nc(N)nc(-c2ccccc2)c1C#N` [17e, 2‐amino‐4‐((3‐(dibutylamino)propyl)amino)‐6‐phenylpyrimidine‐5‐carbonitrile], the IC50 in data set [1] (setting [6]) came to 16.7 µM; in data set [2], 9.14 µM; in data set [3] it was 7.31 µM; in data set [5] (setting [7]), 4.18 µM. In addition, the viability at 48 h, 10 μM in data set [4] was determined as 67%.
For `C[C@@H]1[C@H](O)[C@@H](C)/C=C/C=C/C=C/C=C/C=C/C=C/C=C/[C@H](O[C@@H]2O[C@H](C)[C@@H](O)[C@H](N)[C@@H]2O)C[C@@H]2O[C@](O)(C[C@@H](O)C[C@@H](O)[C@H](O)CC[C@@H](O)C[C@@H](O)CC(=O)O[C@H]1C)C[C@H](O)[C@H]2C(=O)O` [AmB, amphotericin B, reference compound], the IC50 in data set [2] was found to be 0.29 µM; in data set [3], 0.22 µM.
Turning to `CCN(CC)CCCC(C)Nc1ccnc2cc(Cl)ccc12` (stereo not drawn) [CQ, chloroquine, reference compound], the IC50 in data set [1] (D10, 72 h) was 0.04 µM; in data set [5] (W2, 72 h), 0.45 µM.
As to `N#Cc1c(-c2cccc(Br)c2)n[nH]c1Nc1ccccc1` [VIa, reference compound], the IC50 in data set [1] (setting [6]) is 27.8 µM; in data set [2] it was 21.2 µM; in data set [3] it was 17.7 µM; in data set [5] (setting [7]), 21 µM. Further, the viability at 48 h, 10 μM in data set [4] came out at 78%.
